Experimental data published in US10981932B2, “Macrocyclic indole derivatives” (Bayer Aktiengesellschaft, priority 2016, dated 2021).
Where “and” joins values, the source holds several entries; their conditions need not be identical. Equal values may be shown once. Where a name gives a salt, the structure may show the parent alone. Read-outs that look alike come from different tables or passages of the source.

Experiments:
MCL-1 = MCL-1 (Homo sapiens, UniProt Q07820); test: Protein-protein interaction assay MCL-1/Noxa BH3 peptide (MCL-1 assay), TR-FRET; format: binding; settings: MBP-MCL-1 / Noxa BH3-derived peptide, median
Chain of MCL-1 (Q07820 whole entry): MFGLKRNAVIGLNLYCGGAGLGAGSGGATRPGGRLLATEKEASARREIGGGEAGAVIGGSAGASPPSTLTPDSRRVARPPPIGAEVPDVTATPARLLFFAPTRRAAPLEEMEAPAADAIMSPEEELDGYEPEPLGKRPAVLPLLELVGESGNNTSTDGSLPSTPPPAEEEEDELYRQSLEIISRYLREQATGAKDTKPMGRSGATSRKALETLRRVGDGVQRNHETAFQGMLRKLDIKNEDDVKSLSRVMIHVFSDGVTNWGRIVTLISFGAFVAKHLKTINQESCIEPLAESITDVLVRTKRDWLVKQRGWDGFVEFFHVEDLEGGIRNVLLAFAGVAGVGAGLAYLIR
Method in brief: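 MBP-MCL-1 (1 nM final) was preincubated 10 min at 22 °C with compounds (11 concentrations, 0.1 nM–20 μM, duplicates) in Tris pH 7 buffer with NaCl, KF, Tween-20, DTT and BGG. After 1 h at 22 °C in the dark plus overnight at 4 °C, anti-MBP Eu-cryptate/streptavidin-XL665 TR-FRET was read; IC50 came from a 4-parameter fit.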

A2780 = test: Anti-proliferative effect (CellTiter-Glo, 72 h), A2780; format: cell-based; settings: A2780 cells, median, read-out: IC50 antiproliferation assay A2780 [M] (median)
Method in brief: (§1)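 Anti-proliferative activity is derived from ATP-based luminescence (CellTiter-Glo) in cells exposed to compound for 72 h at 37 °C, set against a time zero plate read at seeding.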

SUDHL10 [1] = test: Induction of cytotoxicity (CellTiter-Glo, 5 h), SUDHL10
SUDHL10 [2] = test: Anti-proliferative effect (CellTiter-Glo, 72 h), SUDHL10; format: cell-based; settings: SUDHL10 cells, antiproliferation, median, read-out: Antiproli SUDHL10 [M] (median)
Method in brief: as §1

MV-4-11 = test: Anti-proliferative effect (CellTiter-Glo, 72 h), MV-4-11; format: cell-based; settings: Homo sapiens, MV4-11, 72 h, MV-4-11 cells, median, read-out: IC50 antiproliferation assay MV-4-11 [M] (median)
Method in brief: as §1

SUDHL5 [3] = test: Induction of caspase-3/7 activity (Caspase-Glo 3/7), SUDHL5; format: cell-based; settings: caspase-3/7 induction, SUDHL5 cells, 3 h treatment, median
Method in brief: (§2)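 Caspase-Glo 3/7 luminescence measured after 3 h compound exposure at 37 °C in SUDHL10 and SUDHL5 cells. EC50 values come from background-corrected signals, with curve bottom set to 1 and plateau set to maximal induction by the reference compound.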

SUDHL5 [4] = test: Induction of cytotoxicity (CellTiter-Glo, 5 h), SUDHL5
SUDHL5 [5] = test: Anti-proliferative effect (CellTiter-Glo, 72 h), SUDHL5; format: cell-based; settings: SUDHL5 cells, antiproliferation, median, read-out: Antiproli SUDHL5 [M] (median)
Method in brief: as §1

SUDHL10 [6] = test: Induction of caspase-3/7 activity (Caspase-Glo 3/7), SUDHL10; format: cell-based; settings: caspase-3/7 induction, SUDHL10 cells, 3 h treatment, median
Method in brief: as §2

[7] = Homo sapiens, SU-DHL10, 5 h, read-out: Cytotox SUDHL10 [M] (median), SUDHL10 cells, cytotoxicity induction, CellTiter-Glo, 5 h incubation, median
[8] = Homo sapiens, SU-DHL10, 72 h, 72 h incubation
[9] = Homo sapiens, SU-DHL-5, 5 h, read-out: Cytotox SUDHL5 [M] (median), SUDHL5 cells, cytotoxicity induction, CellTiter-Glo, 5 h incubation, median
[10] = Homo sapiens, SU-DHL-5, 72 h, 72 h incubation
[11] = read-out: Cytotox SUDHL10 [M] (median), SUDHL10 cells, cytotoxicity induction, CellTiter-Glo, 5 h incubation, median
[12] = read-out: Cytotox SUDHL5 [M] (median), SUDHL5 cells, cytotoxicity induction, CellTiter-Glo, 5 h incubation, median

Row | IC50 (MCL-1) [µM] | IC50 (A2780; Homo sapiens, A2780, 72 h) [M] | IC50 (SUDHL10 [2]; [8]) [M] | IC50 (MV-4-11) [M] | EC50 (SUDHL5 [3]; Homo sapiens, SU-DHL-5, 3 h) [µM] | IC50 (SUDHL5 [5]; [10]) [M] | EC50 (SUDHL10 [6]; Homo sapiens, SU-DHL10, 3 h) [µM] | IC50 (SUDHL10 [2]; Homo sapiens, SU-DHL10, 72 h, 72 h) [M] | IC50 (SUDHL5 [5]; Homo sapiens, SU-DHL-5, 72 h, 72 h) [M] | IC50 (A2780) | IC50 (SUDHL10 [2]; 72 h incubation) [M] | EC50 (SUDHL5 [3]) [µM] | IC50 (SUDHL5 [5]; 72 h incubation) [M] | EC50 (SUDHL10 [6]) [µM] | Compound | IC50 (SUDHL10 [1]; [7]) [M] | IC50 (SUDHL5 [4]; [9]) [M] | IC50 (SUDHL10 [1]; Homo sapiens, SU-DHL10, 5 h, read-out: Cytotox SUDHL10 [M] (median), SUDHL10 cells, cytotoxicity induction, CellTiter-Glo, 5 h, median) | IC50 (SUDHL5 [4]; Homo sapiens, SU-DHL-5, 5 h, read-out: Cytotox SUDHL5 [M] (median), SUDHL5 cells, cytotoxicity induction, CellTiter-Glo, 5 h, median) | IC50 (SUDHL10 [1]; [11]) [M] | IC50 (SUDHL5 [4]; [12]) [M]
1 | 0.00867 | 2.83e-05 | 1.17e-05 | 7.59e-06 | 6.7 | 5.74e-06 | 18.6 | – | – | – | – | – | – | – | O=C(O)c1c(CCCOc2cccc3ccccc23)c2cccc3c2n1CCCCOCc1nn2c(c1-3)CCCC2 (racemic) [Example 253, (rac)-1-[3-(naphthalen-1-yloxy)propyl]-4,5,6,7,12,13,14,15-octahydro-9H-pyrido[1″,2″:1′,5′]pyrazolo[4′,3′:9,10][1,6]oxazacycloundecino[8,7,6-hi]indole-2-carboxylic Acid] | 1.96e-05 | 6.7e-06 | – | – | – | –
2 | 0.00756 | 1.22e-05 | 7.32e-06 | 1.2e-05 | 4.07 | 5.85e-06 | 10.3 | – | – | – | – | – | – | – | Cc1ccc2c(C(C)CCOc3cccc4cc(F)ccc34)c(C(=O)O)n3c2c1-c1c(nn(C)c1C)COCCCC3 (racemic) [Example 276, 7-{4-[(6-fluoronaphthalen-1-yl)oxy]butan-2-yl}-2,3,4-trimethyl-2,10,11,12,13,15-hexahydropyrazolo[4′3′:9,10][1,6]oxazacycloundecino[8,7,6-hi]indole-8-carboxylic Acid] | 1.03e-05 | 5.23e-06 | – | – | – | –
3 | 0.00221 | 1.52e-05 | 7.01e-06 | 8.62e-06 | 1.84 | 2.82e-06 | 3.73 | – | – | – | – | – | – | – | Cc1c2c(nn1CCN1CCOCC1)COCCCCn1c(C(=O)O)c(CCCOc3cccc4cc(F)ccc34)c3cccc-2c31 (racemic) [Example 284, (rac)-7-{3-[(6-fluoronaphthalen-1-yl)oxy]propy}-3-methyl-2-[2-(morpholin-4-yl)ethyl]-2,10,11,12,13,15-hexahydropyrazolo[4′,3′:9,10][1,6]oxazacycloundecino[8,7,6-hi]indole-8-carboxylic Acid] | 4.25e-06 | 2.46e-06 | – | – | – | –
4 | 0.00206 | 3.05e-05 | – | 1.49e-05 | 5.14 | – | 13 | 8.1e-06 | 7.2e-06 | – | – | – | – | – | CCc1nn(C)c2c1-c1cccc3c(CCCOc4cccc5cc(F)ccc45)c(C(=O)O)n(c13)CCCCOC2 (racemic) [Example 287, (rac)-3-ethyl-7-{3-[(6-fluoronaphthalen-1-yl)oxy]propyl}-1-methyl-1,10,11,12,13,15-hexahydropyrazolo[4′,3′:9,10][1,6]oxazacycloundecino[8,7,6-hi]indole-8-carboxylic Acid] | – | – | 1.58e-05 | 5.19e-06 | – | –
5 | 0.00637 | – | – | 5e-06 | – | – | – | – | – | 2.15e-05 M and > 3.3e-05 M | 3.63e-06 | 7.34 | 5.11e-06 | 19.9 | Cn1nc(COc2cncnc2)c2c1COCCCCn1c(C(=O)O)c(CCCOc3cccc4ccccc34)c3cccc-2c31 (single isomer, unassigned) [Example 212, 1-methyl-7-[3-(naphthalen-1-yloxy)propyl]-3-[(pyrimidin-5-yloxy)methyl]-1,10,11,12,13,15-hexahydropyrazolo[4′,3′:9,10][1,6]oxazacycloundecino[8,7,6-hi]indole-8-carboxylic Acid] | – | – | – | – | 2.02e-05 | 6.68e-06
6 | 0.0037 | – | – | 1.04e-05 | – | – | – | – | – | 3.16e-05 M and > 3.3e-05 M | 6.31e-06 | 4.79 | 8.78e-06 | 17.2 | O=C(O)c1c(CCCOc2cccc3ccccc23)c2cccc3c2n1CCCCOCc1nn2c(c1-3)COCC2 (single isomer, unassigned) [Example 252, 1-[3-(naphthalen-1-yloxy)propyl]-4,5,6,7,12,13-hexahydro-9H,15H-[1,4]oxazino[4″,3″:1′,5′]pyrazolo[4′,3′:9,10][1,6]oxazacycloundecino[8,7,6-hi]indole-2-carboxylic acid-N-ethylethanamine Salt] | – | – | – | – | 2.09e-05 | 5.17e-06
7 | 0.000987 | > 3.3e-05 | – | 8.03e-06 | – | – | – | – | – | 3.25e-05 M | 3.1e-06 | 2.85 | 5.16e-06 | 12 | Cc1nn(C)c2c1-c1cccc3c(CCCOc4cccc5c4CCCC5)c(C(=O)O)n(c13)CCCCOC2 (single isomer, unassigned; enantiomer 1) [Example 007, 1,3-dimethyl-7-[3-(5,6,7,8-tetrahydronaphthalen-1-yloxy)propyl]-1,10,11,12,13,15-hexahydropyrazolo[4′,3′:9,10][1,6]oxazacycloundecino[8,7,6-hi]indole-8-carboxylic acid-N-ethylethanamine Salt (Enantiomer 1)] | – | – | – | – | 6e-06 | 3.54e-06
8 | 0.00357 | > 3.3e-05 | 1.1e-05 | 4.1e-06 | – | 7.61e-06 | 25.3 | – | – | – | – | 6.63 | – | – | Cc1nn(C)c2c1-c1cccc3c(CCCOc4cccc5ccccc45)c(C(=O)O)n(c13)CCCOC2 (single isomer, unassigned; enantiomer 1) [Example 044, 9,11-dimethyl-1-[3-(naphthalen-1-yloxy)propyl]-5,6,8,9-tetrahydro-4H-pyrazolo[4′,3′:8,9][1,5]oxazecino[7,6,5-h]indole-2-carboxylic acid-N-ethylethanamine Salt (Enantiomer 1)] | 2.34e-05 | – | – | – | – | 6.01e-06
9 | 0.00136 | 2.79e-05 | 7.13e-06 | 1.45e-06 | – | – | – | – | – | – | – | 1.34 | 2.32e-06 | 3.97 | Cc1nn(CCN2CCOCC2)c2c1-c1cccc3c(CCCOc4cccc5ccccc45)c(C(=O)O)n(c13)CCCCOC2 (single isomer, unassigned; enantiomer 1) [Example 096, 3-methyl-1-[2-(morpholin-4-yl)ethyl]-7-[3-(naphthalen-1-yloxy)propyl]-1,10,11,1213,15-hexahydropyrazolo[4′,3′:9,10][1,6]oxazacycloundecino[8,7,6-hi]indole-8-carboxylic acid-N-ethylethanamine Salt (Enantiomer 1)] | – | – | – | – | 3.7e-06 | 1.09e-06
10 | 0.0124 | > 3.3e-05 | – | 1.33e-05 | – | – | 26 | – | – | – | 1.72e-05 | 8.06 | 1.24e-05 | – | Cc1nn(CC(F)(F)F)c2c1-c1cccc3c(CCCOc4cccc5ccccc45)c(C(=O)O)n(c13)CCCCOC2 (single isomer, unassigned; enantiomer 1) [Example 110, 3-methyl-7-[3-(naphthalen-1-yloxy)propyl]-1-(2,2,2-trifluoroethyl)-1,10,11,12,13,15-hexahydropyrazolo[4′,3′:9,10][1,6]oxazacycloundecino[8,7,6-hi]indole-8-carboxylic acid-N-ethylethanamine Salt (Enantiomer 1)] | 2.37e-05 | – | – | – | – | 6.54e-06
